The subject of one experiment is KTC-1 cells. Description: Cell proliferation assay (cell number), KTC-1 papillary thyroid cancer cells. The following applies: 10^-6 M, 72 h (Fig. 6B). In kind it is cell-based, human. How it is done:
(§1) The ATC cell line, KAT-18, was generously provided by Dr. K.B. Ain, The University of Kentucky, Lexington, KY) and the FTC cell line, WRO 82-1, was established by Dr. G. Juillard (University of California at Los Angeles, CA). The poorly differentiated papillary thyroid carcinoma cell line, KTC-1 [31], was a generous gift of Dr. James A. Fagin (Memorial Sloan Kettering Cancer Center, New York, NY). The KAT-18 cells were grown in phenol-red free RPMI 1640 media (GIBCO/Invitrogen, Carlsbad, CA), and the WRO 82-1 and KTC-1 cells were grown in standard RPMI 1640 media supplemented with 1% non-essential amino acids. All media were supplemented with 10% fetal calf serum, 2 mM L-glutamine, 1.2% sodium bicarbonate, and antibiotics (5,000 Units/ml penicillin, 5 mg/ml streptomycin, 10 mg/ml neomycin). The cell cultures were maintained in a humidified atmosphere of 5% CO2 at 37°C. […]
(§2) Cells were seeded at equivalent amounts into 6- or 24-well plates (Falcon) and counted 24 h later (time 0) to determine plating efficiency. […] Cells were harvested by trypsinization with 0.25% trypsin/0.53 mM EDTA, centrifuged, and counted with a hemacytometer. Cell viability was determined by trypan blue staining. At least two aliquots per well, and 2-4 wells/treatment, were counted for each experiment. […]

Experiment [1] concerns KAT-18 cells. The experiment is described as follows: Apoptosis (TUNEL) in KAT-18 cells. The following applies: 72 h, data not shown. In kind it is cell-based, human. Here is the method: Cells were harvested after 72 h of drug treatment, and TUNEL assays conducted according to manufacturer's recommendations.
Experiment [2] concerns KAT-18 cells. Description: Growth of KAT-18 cells transfected with OGFr siRNA or scrambled siRNA. In kind it is cell-based, human. How it is done: The OGFr-targeted siRNAs (antisense:5'-[…]-3'; sense: 5'-[…]-3') were designed and obtained as ready-annealed, purified duplex probes from Ambion (Austin, TX). For transfection, 5 × 10^4 KAT-18 cells per well were seeded in 6-well plates containing 1 ml of serum-containing media without antibiotics. In each well, 20 nM OGFr-siRNA or control siRNA solutions in serum-free media were added. […] At 72 h cells were collected for computing growth. Two independent experiments were conducted. The scrambled siRNAs were purchased from Ambion.

The test system of experiment [3] is KAT-18 cells. Description: Necrosis (trypan blue) in KAT-18 cells. In kind it is cell-based, human. The following applies: data not shown. Here is the method:
Necrosis was recorded as the number of positive trypan blue cells in any cell growth assay.

For experiment [4], the system named is KAT-18 cells. Description: DNA synthesis (BrdU incorporation) in KAT-18 cells. In kind it is cell-based, human. The following applies: 10^-6 M, 72 h; 30 μM BrdU 3 h prior to fixing (Fig. 5). How it is done:
To examine DNA synthesis, KAT-18 cells were seeded onto 22 mm diameter coverglasses placed in 6-well plates (3 × 10^3 cells/coverglass), and treated with compounds for 72 h; media and drugs were replaced daily. Three h prior to fixing cells, 30 μM BrdU (Sigma Chemicals, Indianapolis, IN) was added to cultures. Cells were rinsed, fixed in 10% neutral buffered formalin for 10 min, and stained with antibodies to BrdU (anti-BrdU-BOD, Roche/Invitrogen). At least 1000 cells/treatment using at least 2 coverglasses/treatment were counted, and the number of positive cells recorded. Labeling indexes were calculated as the number of positive stained cells divided by total cells.

The subject of the next experiment is WRO 82-1 cells. The experiment is described as follows: Cell proliferation assay (cell number), WRO 82-1 follicular thyroid cancer cells. In kind it is cell-based, human. Conditions: 10^-6 M, 72 h (Fig. 7B). How it is done: as §1, §2
The subject of experiment [5] is KAT-18 cells. The experiment is described as follows: Cell proliferation assay (cell number), KAT-18 anaplastic thyroid cancer cells. In kind it is cell-based, human. How it is done: The ATC cell line, KAT-18, was generously provided by Dr. K.B. Ain, The University of Kentucky, Lexington, KY) and the FTC cell line, WRO 82-1, was established by Dr. G. Juillard (University of California at Los Angeles, CA). The poorly differentiated papillary thyroid carcinoma cell line, KTC-1 [31], was a generous gift of Dr. James A. Fagin (Memorial Sloan Kettering Cancer Center, New York, NY). […] The cell cultures were maintained in a humidified atmosphere of 5% CO2 at 37°C. All cell lines were free of Mycoplasma and confirmed by single nucleotide polymorphism array analysis to be unique follicular cell-derived thyroid cancer cell lines.
Media and compounds were replaced daily. […] Cell viability was determined by trypan blue staining. At least two aliquots per well, and 2-4 wells/treatment, were counted for each experiment. Two to five experiments were conducted for each measure performed.

A further experiment deals with T1, OGFr (Homo sapiens, UniProt Q9NZT2).
T1 chain: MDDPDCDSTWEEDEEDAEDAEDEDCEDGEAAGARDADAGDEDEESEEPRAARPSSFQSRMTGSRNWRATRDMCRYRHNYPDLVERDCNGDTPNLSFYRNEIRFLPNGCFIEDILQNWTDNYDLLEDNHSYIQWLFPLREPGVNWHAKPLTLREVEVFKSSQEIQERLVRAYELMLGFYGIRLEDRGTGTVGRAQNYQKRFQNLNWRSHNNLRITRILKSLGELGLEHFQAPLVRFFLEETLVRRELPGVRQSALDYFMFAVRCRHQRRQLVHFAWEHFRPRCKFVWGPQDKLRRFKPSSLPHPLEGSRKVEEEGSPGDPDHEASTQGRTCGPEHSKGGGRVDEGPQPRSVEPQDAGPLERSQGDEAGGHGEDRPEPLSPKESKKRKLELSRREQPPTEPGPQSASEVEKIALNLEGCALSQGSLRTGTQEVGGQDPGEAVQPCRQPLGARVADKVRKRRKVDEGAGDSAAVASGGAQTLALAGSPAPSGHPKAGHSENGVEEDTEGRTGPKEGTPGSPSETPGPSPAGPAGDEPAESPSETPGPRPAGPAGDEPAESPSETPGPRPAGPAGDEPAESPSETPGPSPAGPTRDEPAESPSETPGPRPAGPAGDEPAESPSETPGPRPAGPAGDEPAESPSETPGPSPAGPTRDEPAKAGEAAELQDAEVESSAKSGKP
The experiment is described as follows: receptor binding assay.

The mark [6] stands for this setting: 10^-6 M NTX, cultures receiving OGFr siRNA (Fig. 4C).
[7] abbreviates: 10^-6 M, 72 h, opioid specificity experiment (Fig. 3A).
[8] abbreviates: 10^-6 M OGF, cells transfected with OGFr siRNA (Fig. 4C).

Entries after “also recorded” stand apart in the source; their conditions may differ. Counter-ions that a name gives are not always drawn. Some results are limits rather than exact numbers.

The results in this text go back to PMC2770570 (BMC Cancer, 2009).

In general, Kd refers to the concentration at which binding is half-saturated. A high value points to a looser complex.

Consider `O=C1CC[C@@]2(O)[C@H]3Cc4ccc(O)c5c4[C@@]2(CCN3CC2CC2)[C@H]1O5` [NTX, naltrexone], for which the “increase in cell number from control” value in the experiment on KTC-1 cells amounted to 30%. Moreover, in the experiment on KAT-18 cells [1], the “apoptosis relative to positive control samples” value is “negligible” and the “number of apoptotic cells vs control” value was “No differences in the number of apoptotic or necrotic cells”. In the experiment with KAT-18 cells [2] (setting [6]), the “cell number vs OGFr siRNA plus vehicle” value is “did not differ from cells receiving OGFr siRNA plus vehicle” and the “increase in cell number vs wildtype cells” value is 70%. Moreover, in the experiment on KAT-18 cells [2] (10^-6 M NTX, untreated and scrambled siRNA cultures (Fig. 4C)), the “increase in cell number vs wildtype cells receiving vehicle” value was found to be 32%. For the same molecule, in the experiment on KAT-18 cells [3], the necrosis result is “negligible” and the “number of necrotic cells vs control” value was “No differences in the number of apoptotic or necrotic cells”. For the same molecule, the “increase in DNA synthesis (BrdU) vs control” value in the experiment on KAT-18 cells [4] is reported as 25%. Moreover, the “increase in cell number from control” value with WRO 82-1 cells is on record as 30%.
For the molecule `CN1CC[C@]23c4c5ccc(O)c4O[C@H]2[C@@H](O)C=C[C@H]3[C@H]1C5` [morphine, morphine sulfate], the “effect on cell proliferation vs control” value with KAT-18 cells [5] (setting [7]) is given as “Only OGF altered cell proliferation significantly”.
Take `C=CCN1CC[C@]23c4c5ccc(O)c4O[C@H]2C(=O)CC[C@@]3(O)[C@H]1C5` [naloxone]: in the experiment with KAT-18 cells [5] (KAT-18 cells), the “effect of naloxone on the OGF-induced depression in cell acquisition” value is “blocked the depression in cell acquisition”. Besides, the “change in cell number vs control” value in the experiment with KAT-18 cells [5] (naloxone 10^-6 M with or without OGF 10^-6 M, 72 h (Fig. 2C)) is “no change in cell number; also recorded: did not have any influence on cell replication”.
As for “[D-Ala^2, MePhe^4, Glycol^5]-enkephalin [DAMGO]”, the “effect on cell proliferation vs control” value in the experiment on KAT-18 cells [5] (setting [7]) is given as “Only OGF altered cell proliferation significantly”.
Still for that read-out and setting: the same measure for [D-Pen^2,5]-enkephalin [DPDPE]: “Only OGF altered cell proliferation significantly”.
As to [Met^5]-enkephalin [OGF], the “reduction in cell number from control” value in the experiment with KTC-1 cells came to 31%; in the experiment with KAT-18 cells [5] (10^-4 M, 72 h, dose-response (Fig. 2A)) it was 38%; in the experiment on KAT-18 cells [5] (10^-5 M, 72 h, dose-response (Fig. 2A)), 13%; in the experiment with KAT-18 cells [5] (10^-6 M continuously, at 96 h (Fig. 2D)), 16%; in the experiment on KAT-18 cells [5] (10^-6 M continuously, at 120 h (Fig. 2D)) it was 28%; in the experiment on KAT-18 cells [5] (10^-6 M for 72 h, then media without OGF, at 96 h (Fig. 2D)), 6%. Moreover, the “reduction in cell number from control” value in the experiment on KAT-18 cells [5] (10^-6 M for 72 h, then media without OGF, at 120 h (Fig. 2D)) was determined as 8%; in the experiment with KAT-18 cells [5] (10^-6 M, 72 h, dose-response (Fig. 2A)), 14%; with KAT-18 cells [5] (10^-6 M, 72 h, naloxone experiment (Fig. 2C)), 20%; with KAT-18 cells [5] (10^-6 M, 72 h, reversibility study (Fig. 2D)), 22%; in the experiment on WRO 82-1 cells, 17%. In addition, the “decrease in cell number from control” value with KAT-18 cells [5] (setting [7]) is recorded as 33%. In addition, the “effect on cell number vs control” value in the experiment with KAT-18 cells [5] (10^-7 M, 72 h, dose-response (Fig. 2A)) is listed as “no significant effect on cell number”. In addition, the “duration of growth repression in presence of drug” value with KAT-18 cells [5] (KAT-18 cells) is “up to 120 h”. For the same molecule, in the experiment on KAT-18 cells [5] (KAT-18 cells), the “time to observed growth repression after initiating drug exposure” value is ≤ 24 h. In addition, the “maximum reduction in cell number ("by as much as")” value in the experiment with KAT-18 cells [5] (KAT-18 cells, abstract) is recorded as ≤ 38%. Besides, the “number of apoptotic cells vs control” value in the experiment on KAT-18 cells [1] is “No differences in the number of apoptotic or necrotic cells”. Besides, the “cell number, OGF vs sterile water” value with KAT-18 cells [2] (setting [8]) is “did not differ in cell number from each other”. For the same molecule, the “effect on cell number” value with KAT-18 cells [2] (setting [8]) is listed as “no effect”. Besides, the “reduction in cell number” value in the experiment on KAT-18 cells [2] (10^-6 M OGF, untransfected cultures and those transfected with scrambled siRNAs (Fig. 4C)) was found to be 30%. The necrosis entry in the experiment with KAT-18 cells [3] is “negligible”. The “number of necrotic cells vs control” value with KAT-18 cells [3] is “No differences in the number of apoptotic or necrotic cells”. For the same molecule, in the experiment on KAT-18 cells [4], the “decrease in proportion of BrdU labeled cells vs control” value was found to be 28%.
On to “dynorphin A1-8 (YGGFLRRI; Dynorphin A(1-8); UniProt P01213 207-214, looked up)”, for which the “effect on cell proliferation vs control” value in the experiment with KAT-18 cells [5] (setting [7]) is “Only OGF altered cell proliferation significantly”.
On the same count and under the same terms, the same measure for endomorphin 1: “Only OGF altered cell proliferation significantly”; for endomorphin 2: “Only OGF altered cell proliferation significantly”; for “β-endorphin (YGGFMTSEKSQTPLVTLFKNAIIKNAYKKGE; Beta-endorphin; UniProt P01189 237-267, looked up)”: “Only OGF altered cell proliferation significantly”.

B1: opioid growth factor (OGF) (peptide)
chain: YGGFM
In the experiment with OGFr, B1 yielded a dissociation constant Kd of 3.5 nM.
